{"source": "patent US20240398817A1", "about": "“CARDIO- AND RENOSAFE ANTIDIABETIC THERAPY” (priority 2018, published 2024)", "test_system": "patients with type 2 diabetes at high vascular risk", "experiment": "Cardiovascular and Renal Outcomes Trial: linagliptin 5 mg once daily vs placebo on top of standard of care", "type": "in vivo", "details": "for Hazard ratio for hospitalised heart failure: vs placebo", "description": "The effect of linagliptin on cardiovascular risk in adult patients with type 2 diabetes mellitus and with increased CV risk evidenced by a history of established macrovascular or renal disease (e.g. as defined herein) was evaluated in a multi-center, multi-national, randomized, double-blind parallel group trial. The trial compared the risk of experiencing a major adverse cardiovascular event (MACE) between linagliptin and placebo when these were added to and used concomitantly with standard of care treatments for diabetes (HbA1c), cardiovascular risk factors and renal disease.\nThe primary endpoint in this trial was the time to first occurrence of three point (3P) MACE. A major adverse cardiac event was defined as a cardiovascular death or a nonfatal myocardial infarction (MI) or a nonfatal stroke. The statistical analysis plan tested for non-inferiority for the occurrence of (3P) MACE. […] The secondary endpoint was a renal composite, defined as renal death or sustained end stage renal disease or sustained decrease of 40% or more in eGFR.\nType 2 diabetes patient with insufficient glycemic control (naïve or pre-treated with any antidiabetic background medication, excluding treatment with GLP-1 receptor agonists, DPP-4inhibitors or SGLT-2 inhibitors if ≥consecutive 7 days, e.g. having HbA1c 6.5-10%), and high risk of cardiovascular events, e.g. defined by: • albuminuria (micro or macro) and previous macrovascular disease: e.g. defined according to Condition I as indicated below; • and/or • impaired renal function: e.g. as defined according to Condition II as indicated below;\nBackground and aims: People with type 2 diabetes (T2D) are at increased risk for hospitalization for heart failure (hHF), particularly in the setting of concomitant cardiovascular (CV) and/or kidney disease. […] Here we present analyses of HF outcomes with the DPP-4 inhibitor linagliptin (LINA) vs. placebo (PBO) from a Cardiovascular and Renal Outcomes Trial assessing cardiovascular safety and renal microvascular outcome in patients with type 2 diabetes at high vascular risk, a large CV outcomes trial that enrolled participants with T2D at high risk for hHF due to concomitant CV and/or chronic kidney disease. Materials and methods: People with T2D and concomitant CV and/or kidney disease were randomized to receive LINA 5 mg, or PBO once daily (1:1), on top of standard of care. All hHF, CV outcomes, and deaths were centrally adjudicated, with individual and composite HF-related outcomes analyses comparing LINA vs. placebo. Investigator-reported HF-related adverse events, whether or not confirmed by adjudication, were also analyzed. A Cox proportional hazards model adjusting for region and history of HF was used for analyses of first events. Recurrent hHF events were analyzed using a negative binomial model.\nMethods: The present Cardiovascular and Renal Outcomes Trial randomized people with T2D and i) concomitant CV disease with UACR >30 mg/g or ii) prevalent CKD (i.e. GFR <45 ml/min/1.73m2 and/or UACR >200 mg/g) to receive the DPP-4 inhibitor linagliptin (5 mg) or placebo once daily in a double-blind fashion. The primary CV endpoint was 3P-MACE, with a key secondary kidney endpoint (adjudicated ESKD, renal death, or sustained ≥40% decrease in eGFR from baseline) and other renal outcomes (including albuminuria and eGFR slope) also assessed. Subgroups were assessed by baseline kidney function (eGFR ≥/<45 ml/min/1.73m2and eGFR ≥/<30, 45 or 60 ml/min/1.73m2).\nAdults with type 2 diabetes, HbA1c 6.5-10.0% inclusive, and high CV risk were eligible for inclusion. […] Macrovascular disease eligibility criteria was based on documented and confirmed history of myocardial infarction, coronary artery disease, stroke, carotid artery disease, or peripheral artery disease. Participants with end-stage kidney disease (ESKD), defined as eGFR <15 or requiring maintenance dialysis, were excluded.", "key": {"[1]": {"details": "Metformin-dose: Not on metformin"}, "[2]": {"details": "Prevalent kidney disease (eGFR<60 mL/min/1.73 m^2 or macroalbuminuria UACR >300 mg/g) No"}, "[3]": {"details": "Prevalent kidney disease (eGFR<60 mL/min/1.73 m^2 or macroalbuminuria UACR >300 mg/g) Yes"}, "[4]": {"details": "Prevalent kidney disease (eGFR<60 or UACR >300 mg/g) No"}, "[5]": {"details": "Prevalent kidney disease (eGFR<60 or UACR >300 mg/g) Yes"}}}
{"smiles": "CC#CCn1c(N2CCC[C@@H](N)C2)nc2c1c(=O)n(Cc1nc(C)c3ccccc3n1)c(=O)n2C", "note": "[Linagliptin, 1-[(4-methyl-quinazolin-2-yl)methyl]-3-methyl-7-(2-butyn-1-yl)-8-(3-(R)-amino-piperidin-1-yl)-xanthine]", "values": [{"measurement": "Hazard ratio for hospitalised heart failure", "setting": "History of heart failure Yes", "value": 0.88}, {"measurement": "3-point MACE: hazard ratio vs placebo", "setting": "Insulin No", "value": 0.88}, {"measurement": "3-point MACE: patients with event/patients analyzed", "setting": "Insulin No", "value": "139/1487"}, {"measurement": "Key secondary kidney outcome: hazard ratio vs placebo", "setting": "Insulin No", "value": 1.08}, {"measurement": "Key secondary kidney outcome: patients with event/patients analyzed", "setting": "Insulin No", "value": "101/1487"}, {"measurement": "Patients with event/patients analysed, hospitalised heart failure", "setting": "Insulin No", "value": "40/1487"}, {"measurement": "Hazard ratio for hospitalised heart failure", "setting": "Insulin No", "value": 0.62}, {"measurement": "3-point MACE: hazard ratio vs placebo", "setting": "Insulin Yes", "value": 1.10}, {"measurement": "3-point MACE: patients with event/patients analyzed", "setting": "Insulin Yes", "value": "295/2007"}, {"measurement": "Key secondary kidney outcome: hazard ratio vs placebo", "setting": "Insulin Yes", "value": 1.01}, {"measurement": "Key secondary kidney outcome: patients with event/patients analyzed", "setting": "Insulin Yes", "value": "226/2007"}, {"measurement": "Patients with event/patients analysed, hospitalised heart failure", "setting": "Insulin Yes", "value": "169/2007"}, {"measurement": "Hazard ratio for hospitalised heart failure", "setting": "Insulin Yes", "value": 1.00}, {"measurement": "Patients with event/patients analysed, hospitalised heart failure", "setting": "Ischemic heart disease No", "value": "66/1465"}, {"measurement": "Hazard ratio for hospitalised heart failure", "setting": "Ischemic heart disease No", "value": 1.04}, {"measurement": "Patients with event/patients analysed, hospitalised heart failure", "setting": "Ischemic heart disease Yes", "value": "143/2029"}, {"measurement": "Hazard ratio for hospitalised heart failure", "setting": "Ischemic heart disease Yes", "value": 0.85}, {"measurement": "3-point MACE: hazard ratio vs placebo", "setting": "Lipid lowering drugs No", "value": 0.90}, {"measurement": "3-point MACE: patients with event/patients analyzed", "setting": "Lipid lowering drugs No", "value": "95/871"}, {"measurement": "Key secondary kidney outcome: hazard ratio vs placebo", "setting": "Lipid lowering drugs No", "value": 1.13}, {"measurement": "Key secondary kidney outcome: patients with event/patients analyzed", "setting": "Lipid lowering drugs No", "value": "101/871"}, {"measurement": "Patients with event/patients analysed, hospitalised heart failure", "setting": "Lipid lowering drugs No", "value": "34/871"}, {"measurement": "Hazard ratio for hospitalised heart failure", "setting": "Lipid lowering drugs No", "value": 1.01}, {"measurement": "3-point MACE: hazard ratio vs placebo", "setting": "Lipid lowering drugs Yes", "value": 1.06}, {"measurement": "3-point MACE: patients with event/patients analyzed", "setting": "Lipid lowering drugs Yes", "value": "339/2623"}, {"measurement": "Key secondary kidney outcome: hazard ratio vs placebo", "setting": "Lipid lowering drugs Yes", "value": 1.00}, {"measurement": "Key secondary kidney outcome: patients with event/patients analyzed", "setting": "Lipid lowering drugs Yes", "value": "226/2623"}, {"measurement": "Patients with event/patients analysed, hospitalised heart failure", "setting": "Lipid lowering drugs Yes", "value": "175/2623"}, {"measurement": "Hazard ratio for hospitalised heart failure", "setting": "Lipid lowering drugs Yes", "value": 0.88}, {"measurement": "Patients with event/patients analysed, hospitalised heart failure", "setting": "Loop diuretics No", "value": "80/2530"}, {"measurement": "Hazard ratio for hospitalised heart failure", "setting": "Loop diuretics No", "value": 0.97}, {"measurement": "Patients with event/patients analysed, hospitalised heart failure", "setting": "Loop diuretics Yes", "value": "129/964"}, {"measurement": "Hazard ratio for hospitalised heart failure", "setting": "Loop diuretics Yes", "value": 0.90}, {"measurement": "3-point MACE: hazard ratio vs placebo", "setting": "Metformin No", "value": 1.02}, {"measurement": "3-point MACE: patients with event/patients analyzed", "setting": "Metformin No", "value": "242/1613"}, {"measurement": "Key secondary kidney outcome: hazard ratio vs placebo", "setting": "Metformin No", "value": 0.99}, {"measurement": "Key secondary kidney outcome: patients with event/patients analyzed", "setting": "Metformin No", "value": "212/1613"}, {"measurement": "Patients with event/patients analysed, hospitalised heart failure", "setting": "Metformin No", "value": "138/1613"}, {"measurement": "Hazard ratio for hospitalised heart failure", "setting": "Metformin No", "value": 0.97}, {"measurement": "3-point MACE: hazard ratio vs placebo", "setting": "Metformin Yes", "value": 1.02}, {"measurement": "3-point MACE: patients with event/patients analyzed", "setting": "Metformin Yes", "value": "192/1881"}, {"measurement": "Key secondary kidney outcome: hazard ratio vs placebo", "setting": "Metformin Yes", "value": 1.11}, {"measurement": "Key secondary kidney outcome: patients with event/patients analyzed", "setting": "Metformin Yes", "value": "115/1881"}, {"measurement": "Patients with event/patients analysed, hospitalised heart failure", "setting": "Metformin Yes", "value": "71/1881"}, {"measurement": "Hazard ratio for hospitalised heart failure", "setting": "Metformin Yes", "value": 0.79}, {"measurement": "3-point MACE: hazard ratio vs placebo", "setting": "Metformin-dose >1500 mg", "value": 1.02}, {"measurement": "3-point MACE: patients with event/patients analyzed", "setting": "Metformin-dose >1500 mg", "value": "111/1094"}, {"measurement": "Key secondary kidney outcome: hazard ratio vs placebo", "setting": "Metformin-dose >1500 mg", "value": 0.99}, {"measurement": "Key secondary kidney outcome: patients with event/patients analyzed", "setting": "Metformin-dose >1500 mg", "value": "62/1094"}, {"measurement": "Patients with event/patients analysed, hospitalised heart failure", "setting": "Metformin-dose >1500 mg", "value": "49/1094"}, {"measurement": "Hazard ratio for hospitalised heart failure", "setting": "Metformin-dose >1500 mg", "value": 0.88}, {"measurement": "3-point MACE: hazard ratio vs placebo", "setting": "Metformin-dose ≤1500 mg", "value": 1.02}, {"measurement": "3-point MACE: patients with event/patients analyzed", "setting": "Metformin-dose ≤1500 mg", "value": "81/787"}, {"measurement": "Key secondary kidney outcome: hazard ratio vs placebo", "setting": "Metformin-dose ≤1500 mg", "value": 1.29}, {"measurement": "Key secondary kidney outcome: patients with event/patients analyzed", "setting": "Metformin-dose ≤1500 mg", "value": "53/787"}, {"measurement": "Patients with event/patients analysed, hospitalised heart failure", "setting": "Metformin-dose ≤1500 mg", "value": "22/787"}, {"measurement": "Hazard ratio for hospitalised heart failure", "setting": "Metformin-dose ≤1500 mg", "value": 0.65}, {"measurement": "3-point MACE: hazard ratio vs placebo", "setting": "[1]", "value": 1.02}, {"measurement": "3-point MACE: patients with event/patients analyzed", "setting": "[1]", "value": "242/1613"}, {"measurement": "Key secondary kidney outcome: hazard ratio vs placebo", "setting": "[1]", "value": 0.99}, {"measurement": "Key secondary kidney outcome: patients with event/patients analyzed", "setting": "[1]", "value": "212/1613"}, {"measurement": "Patients with event/patients analysed, hospitalised heart failure", "setting": "[1]", "value": "138/1613"}, {"measurement": "Hazard ratio for hospitalised heart failure", "setting": "[1]", "value": 0.97}, {"measurement": "Patients with event/patients analysed, hospitalised heart failure", "setting": "[2]", "value": "18/887"}, {"measurement": "Hazard ratio for hospitalised heart failure", "setting": "[2]", "value": 0.69}, {"measurement": "Patients with event/patients analysed, hospitalised heart failure", "setting": "[3]", "value": "191/2606"}, {"measurement": "Hazard ratio for hospitalised heart failure", "setting": "[3]", "value": 0.91}, {"measurement": "3-point MACE: hazard ratio vs placebo", "setting": "[4]", "value": 0.88}, {"measurement": "3-point MACE: patients with event/patients analyzed", "setting": "[4]", "value": "60/887"}, {"measurement": "Key secondary kidney outcome: hazard ratio vs placebo", "setting": "[4]", "value": 1.36}, {"measurement": "Key secondary kidney outcome: patients with event/patients analyzed", "setting": "[4]", "value": "19/887"}, {"measurement": "3-point MACE: hazard ratio vs placebo", "setting": "[5]", "value": 1.04}, {"measurement": "3-point MACE: patients with event/patients analyzed", "setting": "[5]", "value": "374/2606"}, {"measurement": "Key secondary kidney outcome: hazard ratio vs placebo", "setting": "[5]", "value": 0.99}, {"measurement": "Key secondary kidney outcome: patients with event/patients analyzed", "setting": "[5]", "value": "308/2606"}, {"measurement": "3-point MACE: hazard ratio vs placebo", "setting": "Race Asian", "value": 1.09}, {"measurement": "3-point MACE: patients with event/patients analyzed", "setting": "Race Asian", "value": "40/307"}, {"measurement": "Key secondary kidney outcome: hazard ratio vs placebo", "setting": "Race Asian", "value": 0.90}, {"measurement": "Key secondary kidney outcome: patients with event/patients analyzed", "setting": "Race Asian", "value": "32/307"}, {"measurement": "Patients with event/patients analysed, hospitalised heart failure", "setting": "Race Asian", "value": "14/307"}, {"measurement": "3-point MACE: hazard ratio vs placebo", "setting": "Race Black/African-American", "value": 1.30}, {"measurement": "3-point MACE: patients with event/patients analyzed", "setting": "Race Black/African-American", "value": "31/194"}, {"measurement": "Key secondary kidney outcome: hazard ratio vs placebo", "setting": "Race Black/African-American", "value": 1.31}, {"measurement": "Key secondary kidney outcome: patients with event/patients analyzed", "setting": "Race Black/African-American", "value": "35/194"}, {"measurement": "Patients with event/patients analysed, hospitalised heart failure", "setting": "Race Black/African-American", "value": "15/194"}]}
